# Data published in patent publication US4049495A, “Physiologically active substances and fermentative process for producing the same” (Sankyo Company Limited, priority 1974, dated 1977).
# What was measured:
# [1] = test system: cholesterol levels in blood and liver; assay: lowering of cholesterol in blood and liver of Triton WR 1339-treated rats; type: in vivo; settings: 20 mg./kg. intraperitoneal, with Triton WR 1339 200 mg./kg. i.v., 24 hours, vs Triton alone
# Experimental: 1. One of two groups of rats having an average weight of about 200 g., each group consisting of 5 animals, was individually given by intraveneous injection with 200 mg./kg. of Triton WR 1339 (trade name; available from Ruger Chemical Co., Ltd., U.S.A.; having an activity of increasing cholesterol level in blood) simultaneously with intraperitoneal administration of 20 mg./kg. of ML-236B. After 24 hours from administration, rats were sacrificed by bleeding, blood and liver were collected and their cholesterol and neutral lipid levels were determined by a conventional method.
# [2] = solubility in organic solvents; type: physicochemical
# [3] = test system: cholesterol and neutral lipid levels in blood serum; assay: lowering of cholesterol and neutral lipid in blood serum of rats, oral ML-236B in physiological saline; type: in vivo; settings: 80 mg./kg. powdery in physiological saline solution, vs saline
# Experimental: Moreover, one of two other groups of rats, each group consisting of 5 animals, were orally given 80 mg./kg. of powdery ML-236B in the form of a physiological saline solution. After 3 hours from administration, cholesterol and neutral lipid levels in blood serum were determined in the same manner as above.
# cholesterol biosynthesis = assay: inhibition of cholesterol biosynthesis in vitro (rat liver slice, radioactive acetic acid); type: cell-based; settings: 1 h, 37° C., 60 minutes, read-out: concentration exhibiting about 50% inhibition of cholesterol biosynthesis
# Experimental: I. The activity in vitro on inhibition of cholesterol biosynthesis of the substances ML-236 may be assayed by the following method. Slice of rat liver and radioactive acetic acid are brought to interaction at 37° C. for 60 minutes, the radioactive cholesterol thus biosynthesized is saponified and separated as precipitates with digitonin and then its radioactivity is measured to determine the produced cholesterol amount. Separately, the same procedures as above are employed except that ML-236 is added at the beginning of the reaction, thereby the biosynthesized cholesterol amount being determined. Thus, an effect of ML-236 can be quantitively determined. (See Bricker et al.: The Journal of Biological Chemistry, 247, 4914, 1972).
# [4] = test system: cholesterol and neutral lipid levels in blood serum; assay: lowering of cholesterol and neutral lipid in blood serum of rats, oral ML-236A in gum arabic; type: in vivo; settings: 5 mg./kg. in gum arabic, vs gum arabic alone
# Experimental: 2. Two of four groups of rats, each group consisting of 5 animals, were orally given one dose of 5 mg./kg. of ML-236A suspended in gum arabic. After 3 hours and 18 hours from administration, animals were sacrificed by bleeding and blood was collected. Cholesterol and neutral lipid levels in blood serum were determined by a conventional method.
# [5] = in methanol, ethanol, acetone, ethyl acetate, chloroform and benzene
# [6] = in n-hexane and petroleum ether
Structure (SMILES),lowering of cholesterol level in blood [1],lowering of cholesterol level in liver [1],"Solubility [2, 5]","Solubility [2, 6]",lowering of cholesterol level in blood serum after 3 hours [3],lowering of neutral lipid level in blood serum after 3 hours [3],IC50 (cholesterol biosynthesis),lowering of cholesterol level in blood serum after 3 hours ([4]; 3 hours),lowering of neutral lipid level in blood serum after 3 hours ([4]; 3 hours),lowering of cholesterol level in blood serum after 18 hours ([4]; 18 hours),lowering of neutral lipid level in blood serum after 18 hours ([4]; 18 hours)
CCC(C)C(=O)OC1CCC=C2C=CC(C)C(CCC3CC(O)CC(=O)O3)C21 (centres unmarked) [ML-236B],14.2%,10.1%,Soluble,Insoluble,20.0%,44.2%,~0.01 µg/mL,,,,
CC1C=CC2=CCCCC2C1CCC1CC(O)CC(=O)O1 (centres unmarked) [ML-236C],,,Soluble,Insoluble,,,~0.08 µg/mL,,,,
CC1C=CC2=CCCC(O)C2C1CCC1CC(O)CC(=O)O1 (centres unmarked) [ML-236A],,,Soluble,Insoluble,,,~0.04 µg/mL,13.5%,49.5%,13.5%,not observed
